Data set [1] can be described thus: Permeability of the compound by PAMPA method at pH 7.4. In kind it is ADME. As to conditions: read-out: permeability.
For data set [2], the target named is Calcitonin gene-related peptide type 1 receptor (Homo sapiens, UniProt O60894+Q16602). Put plainly: Antagonist activity at human CGRP receptor expressed in human SK-N-MC cells assessed as inhibition of CGRP-stimulated cAMP production. The data set is classed as functional, cell-based. A general note: Changes in cAMP serve as a functional read-out for many G protein-coupled receptors.
Chain of Calcitonin gene-related peptide type 1 receptor (Q16602 whole entry, one chain of several): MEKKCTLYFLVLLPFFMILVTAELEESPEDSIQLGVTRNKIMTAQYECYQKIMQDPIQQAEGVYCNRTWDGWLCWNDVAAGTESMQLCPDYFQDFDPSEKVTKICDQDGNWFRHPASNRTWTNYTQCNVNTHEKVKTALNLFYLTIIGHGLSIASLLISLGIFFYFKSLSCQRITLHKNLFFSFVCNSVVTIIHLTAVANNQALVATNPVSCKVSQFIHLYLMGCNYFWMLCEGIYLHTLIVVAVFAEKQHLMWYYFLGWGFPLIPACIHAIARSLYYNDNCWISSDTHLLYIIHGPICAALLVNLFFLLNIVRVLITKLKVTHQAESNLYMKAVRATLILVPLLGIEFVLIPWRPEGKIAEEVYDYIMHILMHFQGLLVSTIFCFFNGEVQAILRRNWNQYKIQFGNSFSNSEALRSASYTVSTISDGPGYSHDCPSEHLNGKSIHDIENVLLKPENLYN

The subject of data set [3] is Liver microsomes. Put plainly: Metabolic stability in rat liver microsomes assessed as compound remaining. In kind it is ADME, Microsome.
Data set [4] has as its system Liver. In words: Metabolic stability in mouse liver microsomes assessed as compound remaining. In kind it is ADME, Microsome. (In general: Microsomes from liver hold many membrane-bound enzymes, among them those of drug oxidation.)
The subject of data set [5] is Liver microsomes. Put plainly: Metabolic stability in human liver microsomes assessed as compound remaining. The data set is classed as ADME, Microsome.

The IC50 is the concentration that inhibits the measured activity by half. For `Cc1cc(C[C@@H](NC(=O)N2CCC(N3Cc4cccc(F)c4NC3=O)CC2)C(=O)N2CCC(N3CCCCC3)CC2)cc2cn[nH]c12`, the Papp in data set [1] came to 1.1 ×10⁻⁶ cm/s. Moreover, in data set [2], the IC50 turned out to be 0.026 nM.
Regarding `Cc1cc(CC(OC(=O)N2CCC(c3cc4ccccc4[nH]c3=O)CC2)c2ncc3n2CCNC3)cc2cn[nH]c12` (racemic), in data set [2], the IC50 was 2.9 nM.
As to `Cc1cc(CC(OC(=O)N2CCC(c3cc4ccccc4[nH]c3=O)CC2)c2ncc3n2CCN(Cc2ccccc2)C3)cc2cn[nH]c12` (racemic), the Stability in data set [3] stood at 32%; in data set [4], 9%; in data set [5], 41%.
On the same counts, the results for `Cc1cc(CC(OC(=O)N2CCC(c3cc4ccccc4[nH]c3=O)CC2)c2ncc3n2CCN(C2CCCCC2)C3)cc2cn[nH]c12` (racemic) are 30%, 21% and 41%.
For `Cc1cc(Cn2ccnc2C(Cc2cc(C)c3[nH]ncc3c2)NC(=O)N2CCC(N3Cc4ccccc4NC3=O)CC2)cc(Cl)n1` (racemic), the Stability in data set [3] came to 2%; in data set [4], 0%; in data set [5] it was 2%. In addition, the Papp in data set [1] stood at 3.8 ×10⁻⁶ cm/s. The IC50 in data set [2] was 0.078 nM.
For the compound `Cc1cc(CC(NC(=O)N2CCC(N3Cc4ccccc4NC3=O)CC2)c2nccn2Cc2ccncc2)cc2cn[nH]c12` (racemic), in data set [2], the IC50 came to 0.83 nM.
In the case of `Cc1cc(Cn2ccnc2C(Cc2cc(C)c3[nH]ncc3c2)NC(=O)N2CCC(N3Cc4ccccc4NC3=O)CC2)ccn1` (racemic), the Stability in data set [3] is 2%; in data set [4] it was 1%; in data set [5], 1%. Also, the IC50 in data set [2] worked out at 0.13 nM.
As to `Cc1cc(CC(NC(=O)N2CCC(N3Cc4ccccc4NC3=O)CC2)c2nccn2Cc2cccnc2)cc2cn[nH]c12` (racemic), the Stability in data set [3] is 20%; in data set [4] it was 2%; in data set [5] it was 4%. Further, the IC50 in data set [2] is 0.42 nM.
As to `Cc1cc(CC(NC(=O)N2CCC(N3Cc4ccccc4NC3=O)CC2)c2nccn2Cc2ccccn2)cc2cn[nH]c12` (racemic), the Stability in data set [3] is listed as 1%; in data set [4] it was 0%; in data set [5], 1%. Further, the IC50 in data set [2] is 1.6 nM.
For the compound `Cc1cc(CC(NC(=O)N2CCC(N3Cc4ccccc4NC3=O)CC2)c2nc(Br)c(Br)[nH]2)cc2cn[nH]c12` (racemic), the IC50 in data set [2] came to 4.8 nM.
On to `Cc1cc(CC(NC(=O)N2CCC(N3Cc4ccccc4NC3=O)CC2)c2ncc(Br)[nH]2)cc2cn[nH]c12` (racemic), for which the concentration for half-maximal inhibition (IC50) in data set [2] was 7.4 nM.
As to `Cc1cc(CC(NC(=O)N2CCC(N3Cc4ccccc4NC3=O)CC2)c2ncc(C)n2Cc2cccc(F)c2)cc2cn[nH]c12` (racemic), the Stability was 87% in data set [3], 85% in data set [4] and 100% in data set [5]. For the same compound, the IC50 in data set [2] was 0.37 nM.
On to `Cc1c[nH]c(C(Cc2cc(C)c3[nH]ncc3c2)NC(=O)N2CCC(N3Cc4ccccc4NC3=O)CC2)n1` (racemic), for which, in data set [2], the IC50 is 120 nM.
Take `Cc1cc(CC(NC(=O)N2CCC(N3Cc4ccccc4NC3=O)CC2)c2nc(Br)cn2Cc2cc(F)cc(F)c2)cc2cn[nH]c12` (racemic): the Stability in data set [3] was 100%; in data set [4], 93%; in data set [5], 100%. In addition, the IC50 in data set [2] was determined as 0.39 nM.
Regarding `Cc1cc(CC(NC(=O)N2CCC(N3Cc4ccccc4NC3=O)CC2)c2nccn2Cc2ccc(C(C)(C)C)cc2)cc2cn[nH]c12` (racemic), the 50% inhibitory concentration (IC50) in data set [2] worked out at 0.19 nM.
In the case of `Cc1cc(CC(NC(=O)N2CCC(N3Cc4ccccc4NC3=O)CC2)c2nccn2Cc2cc(F)cc(F)c2)cc2cn[nH]c12` (racemic), the Stability stood at 78% in data set [3], 66% in data set [4] and 84% in data set [5]. The IC50 in data set [2] was 0.39 nM.
Regarding `Cc1cc(CC(NC(=O)N2CCC(N3Cc4ccccc4NC3=O)CC2)c2nccn2Cc2cccc(F)c2)cc2cn[nH]c12` (racemic), in data set [2], the IC50 is 0.63 nM.
As for `Cc1cc(CC(NC(=O)N2CCC(N3Cc4ccccc4NC3=O)CC2)c2nccn2Cc2ccc(F)cc2)cc2cn[nH]c12` (racemic), the IC50 in data set [2] was 0.98 nM.
For the compound `Cc1cc(CC(NC(=O)N2CCC(N3Cc4ccccc4NC3=O)CC2)c2nccn2Cc2ccccc2F)cc2cn[nH]c12` (racemic), the IC50 in data set [2] amounted to 1.9 nM.
For the compound `Cc1cc(CC(NC(=O)N2CCC(N3Cc4ccccc4NC3=O)CC2)c2nccn2CCc2ccccc2)cc2cn[nH]c12` (racemic), in data set [2], the IC50 amounted to 0.88 nM.
In the case of `Cc1cc(CC(NC(=O)N2CCC(N3Cc4ccccc4NC3=O)CC2)c2ncc[nH]2)cc2cn[nH]c12` (racemic), the IC50 in data set [2] is 97 nM.
Regarding `Cc1cc(CC(NC(=O)N2CCC(N3Cc4ccccc4NC3=O)CC2)c2nccn2C)cc2cn[nH]c12` (racemic), in data set [2], the IC50 is 4.8 nM.
Turning to `Cc1cc(CC(NC(=O)N2CCC(N3Cc4ccccc4NC3=O)CC2)c2nccn2Cc2ccccc2)cc2cn[nH]c12` (racemic), the 50% inhibitory concentration (IC50) in data set [2] is 0.77 nM.

Source of the values: ChEMBL document CHEMBL2429735, “Preparation of imidazoles as potent calcitonin gene-related peptide (CGRP) antagonists” (Bioorg Med Chem Lett, 2013).
